Values joined by “and” are separate entries in the source; they are usually repeats but may differ in a detail not shown here. Equal values may be shown once.
Columns and labels:
[1] = system: ethanol-induced ulceration in rats; assay: Inhibition of ethanol-induced ulceration in rats; assay type: in vivo, rat; details: oral dose of 30 mg/kg; for inhibition in vivo at 30 mg/kg: Rattus norvegicus, po
Experimental: The antiulcer activity of the products of this invention was also determined by an ethanol-induced rat ulcer assay. […] One hour after the ethanol challenge the animals (8/group) are killed and the stomachs examined for the presence of lesions. After sacrifice the abdomen is opened and a locking hemostat placed at the pylorus. Six ml of a 4% solution of formaldehyde was injected into the stomach with a gastric feeding tube and a second locking hemostat was used to seal the esophagus. The stomach was removed, opened along the greater curvature and examined for ulceration.
The scoring system used to quantitate the ethanol-induced lesions is given below.
For each group of animals an ulcer index is calculated as follows:
Ulceration Index=(the sum of the scores of the group)×(the sum of the number of ulcers in the group)×(the fraction of the group having any incidence of ulceration).
The percentage inhibition of ulcers is calculated as follows:
% Inhibition=100×[(ulcer index controls)-(ulcer index
drug-treated)].div.(ulcer index controls).

Heidenhain pouch dogs = assay: Gastric acid antisecretory activity in pentagastrin-stimulated conscious Heidenhain pouch dogs; assay type: in vivo, dog; details: intravenously
Experimental: The gastric acid antisecretory activity of compounds of the present invention was determined in overnight fasted, conscious Heidenhain pouch dogs. Pentagastrin (Pentavolon-Ayerst) was used to stimulate acid output by continuous infusion into a superficial leg vein at doses earlier determined to stimulate near maximal acid output from the gastric pouch. Gastric juice was collected at 30 minute intervals following the start of a pentagastrin infusion and measured to the nearest 0.1 ml. Ten collections were taken for each dog during an experiment. Acid concentration was determined by tritrating 1.0 ml of gastric juice to pH 7.4 with 0.1 N sodium hydroxide using an Autoburette and a glass electrode pH meter (Radiometer).
Drug or vehicle was given intravenously 90 minutes following the start of the pentagastrin infusion, at a dose of 1 mg/kg or less. Gastric acid antisecretory effects were calculated by comparing the lowest acid output after drug administration with the mean acid output immediately before drug.

H2 -receptor = target: T1, H2 -receptor (Cavia porcellus, UniProt P47747); assay: Histamine-H2 antagonist activity in isolated guinea pig right atria; assay type: cell-based; details: histamine dose-response, read-out: pA2 (apparent dissociation constant of the H2-receptor antagonist) (converted)
T1 construct: the heart removed and the right atria dissected free; from tissue; host or cells: guinea pig right atria
Experimental: The histamine-H2 antagonist activity of compounds of the present invention was determined by the following procedure:
Guinea pigs are killed rapidly with a blow to the head, the heart removed and the right atria dissected free. Atria are suspended, isometrically, in a temperature-controlled (32°±2°) tissue bath (10 ml) containing oxygenated (95% O2; 5% CO2) Krebs-Henseleit buffer (pH 7.4) and are allowed to stabilize approximately one hour during which time the tissue bath is flushed several times. Individual atrial contractions are followed with a force-displacement transducer connected to a cardiotachometer and Grass polygraph recorder. After obtaining a dose-response curve to histamine, the bath containing each atrium is flushed several times with fresh buffer and the atria reequilibrated to basal rates. Following the return to basal rate, test compounds are addded at selected final concentrations and the histamine dose-response curve is again determined in the presence of antagonist. Results are expressed as dose-ratios, the ratio of histamine concentrations required to produce one-half of maximal stimulation in the presence and absence of antagonist, and the apparent dissociation constant of the H2 -receptor antagonist pA2, is determined.

[2] = dose of 1 mg/kg, pentagastrin-stimulated Heidenhain pouch dogs

T1 sequence (P47747 whole entry): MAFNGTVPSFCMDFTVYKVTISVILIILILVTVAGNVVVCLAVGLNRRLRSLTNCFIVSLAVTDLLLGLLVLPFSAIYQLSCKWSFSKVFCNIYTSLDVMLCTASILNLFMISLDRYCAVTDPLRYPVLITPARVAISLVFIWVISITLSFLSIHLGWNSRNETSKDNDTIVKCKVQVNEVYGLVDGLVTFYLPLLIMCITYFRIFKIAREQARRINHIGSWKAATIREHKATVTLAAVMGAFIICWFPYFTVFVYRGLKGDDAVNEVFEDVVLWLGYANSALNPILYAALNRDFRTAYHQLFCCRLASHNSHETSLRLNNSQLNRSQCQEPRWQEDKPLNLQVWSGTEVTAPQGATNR

## NC(N)=Nc1nc(-c2c[nH]c(N3CCOCC3)n2)cs1 [product aa]
[1]
  inhibition of ethanol-induced ulceration: no significant activity

## NC(N)=Nc1nc(-c2c[nH]c(N3CCCC3)n2)cs1 [product bb]
[1]
  inhibition in vivo at 30 mg/kg: ≥ 19%

## NC(N)=Nc1nc(-c2c[nH]c(N3CCCCC3)n2)cs1 [product cc]
Heidenhain pouch dogs; 0.1 mg/kg, Heidenhain pouch dogs
  inhibition of gastric secretion: 72%
Heidenhain pouch dogs; [2]
  inhibition of gastric secretion: at least 21%
[1]
  inhibition in vivo at 30 mg/kg: ≥ 19%

## CC(C)CCNc1nc(-c2csc(N=C(N)N)n2)c[nH]1 [product m]
[1]
  inhibition in vivo at 30 mg/kg: ≥ 19%

## NC(N)=Nc1nc(-c2c[nH]c(NC3CC3)n2)cs1 [product n]
Heidenhain pouch dogs; [2]
  inhibition of gastric secretion: at least 21%
Heidenhain pouch dogs; dose of 3 microg/kg, Heidenhain pouch dogs
  inhibition of gastric secretion: 42%
H2 -receptor
  Kb: ≤ 1260 nM and ≤ 100 nM and 1.58 nM
[1]
  inhibition in vivo at 30 mg/kg: 7 to 13%

## NC(N)=Nc1nc(-c2c[nH]c(NC3CCCC3)n2)cs1 [product o]
H2 -receptor
  Kb: ≤ 1260 nM
[1]
  inhibition of ethanol-induced ulceration: no significant activity

## NC(N)=Nc1nc(-c2c[nH]c(NC3CCCCC3)n2)cs1 [product p]
[1]
  inhibition in vivo at 30 mg/kg: 7 to 13%

## NC(N)=Nc1nc(-c2c[nH]c(NCc3ccccc3)n2)cs1 [product q]
[1]
  inhibition in vivo at 30 mg/kg: 7 to 13%

## NC(N)=Nc1nc(-c2c[nH]c(NCCc3ccccc3)n2)cs1 [product r]
Heidenhain pouch dogs; [2]
  inhibition of gastric secretion: at least 21%

## NC(N)=Nc1nc(-c2c[nH]c(NCCCc3ccccc3)n2)cs1 [product s]
H2 -receptor
  Kb: ≤ 100 nM
[1]
  inhibition in vivo at 30 mg/kg: 86 to 100%

## NC(N)=Nc1nc(-c2c[nH]c(NCCCCc3ccccc3)n2)cs1 [product t]
H2 -receptor
  Kb: ≤ 100 nM
[1]
  inhibition in vivo at 30 mg/kg: 86 to 100%

## NC(N)=Nc1nc(-c2c[nH]c(NCCc3ccncc3)n2)cs1 [product u]
[1]
  inhibition in vivo at 30 mg/kg: 21 to 51%

## NC(N)=Nc1nc(-c2c[nH]c(NCCc3ccccn3)n2)cs1 [product v]
[1]
  inhibition of ethanol-induced ulceration: no significant activity

## NC(N)=Nc1nc(-c2c[nH]c(NCCc3ccc(Cl)cc3)n2)cs1 [product w]
Heidenhain pouch dogs; the same (1 mg/kg) or a lower dose, Heidenhain pouch dogs
  inhibition of gastric secretion: at least 97%
H2 -receptor
  Kb: ≤ 100 nM

## CN(C)c1nc(-c2csc(N=C(N)N)n2)c[nH]1 [product x]
[1]
  inhibition of ethanol-induced ulceration: no significant activity

## CCN(C)c1nc(-c2csc(N=C(N)N)n2)c[nH]1 [product y]
[1]
  inhibition in vivo at 30 mg/kg: ≥ 19%

## CCN(CC)c1nc(-c2csc(N=C(N)N)n2)c[nH]1 [product z]
[1]
  inhibition in vivo at 30 mg/kg: ≥ 19%
